# Experiments:
# Test in all cases: in vitro antibacterial evaluation, MIC by broth dilution
# Format in all cases: cell-based
# [1] = test system: Streptococcus sp.; details: broth dilution, 18 hours at 35° C.
# Summary of the method: (§1)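 Following National Committee for Clinical Laboratory Standards recommendations (M7-A2), susceptibility was measured by dilution in Muller-Hinton II […]. Bacteria were seeded at 5×10^5 CFU/mL against compound concentrations from 64 down to 0.06 μg/mL.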
# [2] = test system: Staphylococcus sp.; details: broth dilution, 18 hours at 35° C.
# Summary of the method: as §1
# [3] = test system: Enterococcus sp.; details: broth dilution, 18 hours at 35° C.
# Summary of the method: as §1
# [4] = test system: Escherichia coli; details: 18 hours at 35° C.
# [5] = inoculum 5×10^5 CFU/mL, strain ATCC 6301
# [6] = inoculum 5×10^5 CFU/mL, strain GC 1894
# [7] = inoculum 5×10^5 CFU/mL, strain GC 4563
# [8] = inoculum 5×10^5 CFU/mL, strain GC 4564
# [9] = inoculum 5×10^5 CFU/mL, strain GC 4565
# [10] = inoculum 5×10^5 CFU/mL, strain GC 2242
# [11] = inoculum 5×10^5 CFU/mL, strain GC 2691
# [12] = inoculum 5×10^5 CFU/mL, strain GC 3059
structure (smiles),measurement,setting,value
COc1ccc2cc(COC3C(OC4C(CO)OC(Oc5ccc(CC6NC(=O)C(C(C)c7ccccc7)NC(=O)CNC(=O)C(CO)NC(=O)C(CC7CNC(=N)N7C7OC(CO)C(O)C(O)C7O)NC(=O)C(CC7CNC(=N)N7)NC6=O)cc5)C(O)C4O)OC(CO)C(O)C3O)ccc2c1 (centres unmarked) [Example 245c],MIC Streptococcus agalactiae (GC 4564),[1],128 µg/mL
same,MIC Streptococcus pneumoniae (ATCC 6301),[1],64 µg/mL
same,MIC Streptococcus pneumoniae (GC 1894),[1],32 µg/mL
same,MIC Streptococcus pneumoniae (GC 4565),[1],64 µg/mL
same,MIC Streptococcus pyogenes (GC 4563),[1],128 µg/mL
same,MIC Streptococcus pneumoniae (ATCC 6301),[1]; [5],64 µg/mL
same,MIC Streptococcus pneumoniae (GC 1894),[1]; [6],32 µg/mL
same,MIC Streptococcus pyogenes (GC 4563),[1]; [7],128 µg/mL
same,MIC Streptococcus agalactiae (GC 4564),[1]; [8],128 µg/mL
same,MIC Streptococcus pneumoniae (GC 4565),[1]; [9],64 µg/mL
same,MIC Coagulase Negative Staphylococcus (GC 4547),[2],128 µg/mL
same,MIC Coagulase Negative Staphylococcus (GC 4548),[2],128 µg/mL
same,MIC Coagulase Negative Staphylococcus (GC 4549),[2],64 µg/mL
same,MIC Coagulase Negative Staphylococcus (GC 4551),[2],128 µg/mL
same,MIC Coagulase Negative Staphylococcus (GC 6257),[2],64 µg/mL
same,MIC Staphylococcus aureus (ATCC 29213),[2],128 µg/mL
same,MIC Staphylococcus aureus (GC 1131),[2],>128 µg/mL
same,MIC Staphylococcus aureus (GC 3051),[2],128 µg/mL
same,MIC Staphylococcus aureus (GC 3053),[2],>128 µg/mL
same,MIC Staphylococcus aureus (GC 4541),[2],128 µg/mL
same,MIC Staphylococcus aureus (GC 4542),[2],128 µg/mL
same,MIC Staphylococcus aureus (GC 4544),[2],128 µg/mL
same,MIC Staphylococcus aureus (GC 4545),[2],128 µg/mL
same,MIC Staphylococcus aureus-SMITH (GC 4543),[2],128 µg/mL
same,MIC Staphylococcus haemolyticus (GC 4546),[2],128 µg/mL
same,MIC Staphylococcus aureus (ATCC 29213),[2]; strain ATCC 29213,128 µg/mL
same,MIC Staphylococcus aureus (GC 1131),[2]; strain GC 1131,>128 µg/mL
same,MIC Staphylococcus aureus (GC 3051),[2]; strain GC 3051,128 µg/mL
same,MIC Staphylococcus aureus (GC 3053),[2]; strain GC 3053,>128 µg/mL
same,MIC Staphylococcus aureus (GC 4541),[2]; strain GC 4541,128 µg/mL
same,MIC Staphylococcus aureus (GC 4542),[2]; strain GC 4542,128 µg/mL
same,MIC Staphylococcus aureus-SMITH (GC 4543),[2]; strain GC 4543,128 µg/mL
same,MIC Staphylococcus aureus (GC 4544),[2]; strain GC 4544,128 µg/mL
same,MIC Staphylococcus aureus (GC 4545),[2]; strain GC 4545,128 µg/mL
same,MIC Staphylococcus haemolyticus (GC 4546),[2]; strain GC 4546,128 µg/mL
same,MIC Coagulase Negative Staphylococcus (GC 4547),[2]; strain GC 4547,128 µg/mL
same,MIC Coagulase Negative Staphylococcus (GC 4548),[2]; strain GC 4548,128 µg/mL
same,MIC Coagulase Negative Staphylococcus (GC 4549),[2]; strain GC 4549,64 µg/mL
same,MIC Coagulase Negative Staphylococcus (GC 4551),[2]; strain GC 4551,128 µg/mL
same,MIC Coagulase Negative Staphylococcus (GC 6257),[2]; strain GC 6257,64 µg/mL
same,MIC Enterococcus avium (GC 4558),[3],>128 µg/mL
same,MIC Enterococcus faecalis (ATCC 29212),[3],>128 µg/mL
same,MIC Enterococcus faecalis (GC 2242),[3],>128 µg/mL
same,MIC Enterococcus faecalis (GC 2691),[3],>128 µg/mL
same,MIC Enterococcus faecalis (GC 3059),[3],>128 µg/mL
same,MIC Enterococcus faecalis (GC 4552),[3],>128 µg/mL
same,MIC Enterococcus faecalis (GC 4553),[3],>128 µg/mL
same,MIC Enterococcus faecalis (GC 4554),[3],>128 µg/mL
same,MIC Enterococcus faecalis (GC 6189),[3],>128 µg/mL
same,MIC Enterococcus faecium (GC 2243),[3],>128 µg/mL
same,MIC Enterococcus faecium (GC 4556),[3],>128 µg/mL
same,MIC Enterococcus faecium (GC 4557),[3],64 µg/mL
same,MIC Enterococcus faecalis (ATCC 29212),[3]; strain ATCC 29212,>128 µg/mL
same,MIC Enterococcus faecium (GC 2243),[3]; strain GC 2243,>128 µg/mL
same,MIC Enterococcus faecalis (GC 4552),[3]; strain GC 4552,>128 µg/mL
same,MIC Enterococcus faecalis (GC 4553),[3]; strain GC 4553,>128 µg/mL
same,MIC Enterococcus faecalis (GC 4554),[3]; strain GC 4554,>128 µg/mL
same,MIC Enterococcus faecium (GC 4556),[3]; strain GC 4556,>128 µg/mL
same,MIC Enterococcus faecium (GC 4557),[3]; strain GC 4557,64 µg/mL
same,MIC Enterococcus avium (GC 4558),[3]; strain GC 4558,>128 µg/mL
same,MIC Enterococcus faecalis (GC 6189),[3]; strain GC 6189,>128 µg/mL
same,MIC Enterococcus faecalis (GC 2242),[3]; [10],>128 µg/mL
same,MIC Enterococcus faecalis (GC 2691),[3]; [11],>128 µg/mL
same,MIC Enterococcus faecalis (GC 3059),[3]; [12],>128 µg/mL
same,MIC Escherichia coli (ATCC 25922),[4],>128 µg/mL
same,MIC Escherichia coli (GC 4559),[4],>128 µg/mL
same,MIC Escherichia coli (GC 4560),[4],32 µg/mL
"CC(c1ccccc1)C1NC(=O)CNC(=O)C(CO)NC(=O)C(C(O)C2CNC(=N)N2C2OC(CO)C(O)C(O)C2O)NC(=O)C(C(O)C2CNC(=N)N2)NC(=O)C(Cc2ccc(OC3OC(CO)C(OC4OC(CO)C(O)C(O)C4OCc4ccc(OCc5ccccc5)cc4)C(O)C3O)cc2)NC1=O (stereo not drawn) [Example 231b, Cyclo[glycyl-β-methylphenylalanyl-O-[4-O-[2-O-[4-(phenylmethoxy)benzyl]hexopyranosyl]-hexopyranosyl]tyrosyl-3-(2-iminoimidazolidin-4-yl)seryl-3-(3-hexopyranosyl-2-iminoimidazolidin-4-yl)serylseryl]]",MIC Streptococcus agalactiae (GC 4564),[1],1 to 8 µg/mL
same,MIC Streptococcus pneumoniae (ATCC 6301),[1],0.25 to 2 µg/mL
same,MIC Streptococcus pneumoniae (GC 1894),[1],<0.06 to 2 µg/mL
same,MIC Streptococcus pneumoniae (GC 4565),[1],0.5 to 8 µg/mL
same,MIC Streptococcus pyogenes (GC 4563),[1],1 to 8 µg/mL
same,MIC Streptococcus pneumoniae (ATCC 6301),[1]; [5],0.25 to 2 µg/mL
same,MIC Streptococcus pneumoniae (GC 1894),[1]; [6],<0.06 to 2 µg/mL
same,MIC Streptococcus pyogenes (GC 4563),[1]; [7],1 to 8 µg/mL
same,MIC Streptococcus agalactiae (GC 4564),[1]; [8],1 to 8 µg/mL
same,MIC Streptococcus pneumoniae (GC 4565),[1]; [9],0.5 to 8 µg/mL
same,MIC Coagulase Negative Staphylococcus (GC 4547),[2],4 to 32 µg/mL
same,MIC Coagulase Negative Staphylococcus (GC 4548),[2],2 to 32 µg/mL
same,MIC Coagulase Negative Staphylococcus (GC 4549),[2],2 to 16 µg/mL
same,MIC Coagulase Negative Staphylococcus (GC 4551),[2],8 to 32 µg/mL
same,MIC Coagulase Negative Staphylococcus (GC 6257),[2],1 to 32 µg/mL
same,MIC Staphylococcus aureus (ATCC 29213),[2],4 to 64 µg/mL
same,MIC Staphylococcus aureus (GC 1131),[2],4 to 64 µg/mL
same,MIC Staphylococcus aureus (GC 3051),[2],4 to 64 µg/mL
same,MIC Staphylococcus aureus (GC 3053),[2],8 to 64 µg/mL
same,MIC Staphylococcus aureus (GC 4541),[2],4 to 32 µg/mL
same,MIC Staphylococcus aureus (GC 4542),[2],4 to 32 µg/mL
same,MIC Staphylococcus aureus (GC 4544),[2],4 to 64 µg/mL
same,MIC Staphylococcus aureus (GC 4545),[2],4 to 32 µg/mL
same,MIC Staphylococcus aureus-SMITH (GC 4543),[2],4 to 64 µg/mL
same,MIC Staphylococcus haemolyticus (GC 4546),[2],4 to 32 µg/mL
same,MIC Staphylococcus aureus (ATCC 29213),[2]; strain ATCC 29213,4 to 64 µg/mL
same,MIC Staphylococcus aureus (GC 1131),[2]; strain GC 1131,4 to 64 µg/mL
same,MIC Staphylococcus aureus (GC 3051),[2]; strain GC 3051,4 to 64 µg/mL
same,MIC Staphylococcus aureus (GC 3053),[2]; strain GC 3053,8 to 64 µg/mL
same,MIC Staphylococcus aureus (GC 4541),[2]; strain GC 4541,4 to 32 µg/mL
same,MIC Staphylococcus aureus (GC 4542),[2]; strain GC 4542,4 to 32 µg/mL
same,MIC Staphylococcus aureus-SMITH (GC 4543),[2]; strain GC 4543,4 to 64 µg/mL
same,MIC Staphylococcus aureus (GC 4544),[2]; strain GC 4544,4 to 64 µg/mL
same,MIC Staphylococcus aureus (GC 4545),[2]; strain GC 4545,4 to 32 µg/mL
same,MIC Staphylococcus haemolyticus (GC 4546),[2]; strain GC 4546,4 to 32 µg/mL
same,MIC Coagulase Negative Staphylococcus (GC 4547),[2]; strain GC 4547,4 to 32 µg/mL
same,MIC Coagulase Negative Staphylococcus (GC 4548),[2]; strain GC 4548,2 to 32 µg/mL
same,MIC Coagulase Negative Staphylococcus (GC 4549),[2]; strain GC 4549,2 to 16 µg/mL
same,MIC Coagulase Negative Staphylococcus (GC 4551),[2]; strain GC 4551,8 to 32 µg/mL
same,MIC Coagulase Negative Staphylococcus (GC 6257),[2]; strain GC 6257,1 to 32 µg/mL
same,MIC Enterococcus avium (GC 4558),[3],8 to 64 µg/mL
same,MIC Enterococcus faecalis (ATCC 29212),[3],8 to 128 µg/mL
same,MIC Enterococcus faecalis (GC 2242),[3],8 to 64 µg/mL
same,MIC Enterococcus faecalis (GC 2691),[3],16 to 64 µg/mL
same,MIC Enterococcus faecalis (GC 3059),[3],16 to 128 µg/mL
same,MIC Enterococcus faecalis (GC 4552),[3],8 to 128 µg/mL
same,MIC Enterococcus faecalis (GC 4553),[3],8 to 128 µg/mL
same,MIC Enterococcus faecalis (GC 4554),[3],16 to 128 µg/mL
same,MIC Enterococcus faecalis (GC 6189),[3],8 to 64 µg/mL
same,MIC Enterococcus faecium (GC 2243),[3],8 to 128 µg/mL
same,MIC Enterococcus faecium (GC 4556),[3],16 to 128 µg/mL
same,MIC Enterococcus faecium (GC 4557),[3],4 to 16 µg/mL
same,MIC Enterococcus faecalis (ATCC 29212),"[3]; inoculum 5×10^5 CFU/mL, strain ATCC 29212",8 to 128 µg/mL
same,MIC Enterococcus faecalis (GC 2242),[3]; [10],8 to 64 µg/mL
same,MIC Enterococcus faecium (GC 2243),"[3]; inoculum 5×10^5 CFU/mL, strain GC 2243",8 to 128 µg/mL
same,MIC Enterococcus faecalis (GC 2691),[3]; [11],16 to 64 µg/mL
same,MIC Enterococcus faecalis (GC 3059),[3]; [12],16 to 128 µg/mL
same,MIC Enterococcus faecalis (GC 4552),"[3]; inoculum 5×10^5 CFU/mL, strain GC 4552",8 to 128 µg/mL
same,MIC Enterococcus faecalis (GC 4553),"[3]; inoculum 5×10^5 CFU/mL, strain GC 4553",8 to 128 µg/mL
same,MIC Enterococcus faecalis (GC 4554),"[3]; inoculum 5×10^5 CFU/mL, strain GC 4554",16 to 128 µg/mL
same,MIC Enterococcus faecium (GC 4556),"[3]; inoculum 5×10^5 CFU/mL, strain GC 4556",16 to 128 µg/mL
same,MIC Enterococcus faecium (GC 4557),"[3]; inoculum 5×10^5 CFU/mL, strain GC 4557",4 to 16 µg/mL
same,MIC Enterococcus avium (GC 4558),"[3]; inoculum 5×10^5 CFU/mL, strain GC 4558",8 to 64 µg/mL
same,MIC Enterococcus faecalis (GC 6189),"[3]; inoculum 5×10^5 CFU/mL, strain GC 6189",8 to 64 µg/mL
same,MIC Escherichia coli (ATCC 25922),[4],>128 µg/mL
same,MIC Escherichia coli (GC 4559),[4],>128 µg/mL
same,MIC Escherichia coli (GC 4560),[4],0.25 to 4 µg/mL
